One data set has as its system 5/2 cells. The class given is in vitro ADME, human. As to the method:
5/2 cells (10^6 cells in 10 ml HB 101 medium) were incubated with all-trans-[^3 H] retinol (10 uCe/ml). After 24 hours, retinoids were extracted from the washed cell pellet and unlabeled marker retinoids were added. The crude extract was loaded on an analytical reversed-phase C-18 column. Retinoids were eluted with the shown linear gradient of water/methanol/chloroform. The flow rate was 0.5 ml/min. DPM were determined with an on line scintillation counter. Reference retinoids were the all-trans forms of 0: 3,4-didehydroretinoic acid, 1: all-trans-retinoic acid, 2: 3,4-didehydroretinol, 3: retinol, 4: retinyl linoleate, 5: retinyl oleate, 6: retinyl palmitate. Shaded area corresponds to P3. Cross-hatched area corresponds to P1.
Lymphoblastoid 5/2 cells grown in the presence of 10^-6 M retinol were spiked with ^3 H-labeled retinol. After 16 hours the cell pellet was delipidated according to the method of McLean et al. and separated on a reversed phase C-18 HPLC column (FIG. 7). […] Three peaks, P1, P2 and P3, could not be immediately identified. One peak eluting at 36-39 minutes (corresponding 83% methanol 7% water) provisionally called P3, but now known as 14HRR, was unusual because unlike P1 eluting at 31-34 minutes, its relative amount increased when the retinol concentration was lowered or when retinol was given to the cells bound to RBP. […] Since HeLa cells contain 14HRR, these cells were also used. 50 ml of packed HeLa cells (10^10 cells) yielded 25 OD348nmunits of pure P3 after the following sequence of steps: 1. Growth in the presence of 10^-5 M retinol; 2. Extraction of cell pellet according to McClean et al. (13); 3. Preparative C-18 HPLC column eluted with a water/methanol gradient; 4. semipreparative C18 HPLC column eluted with a water/acetonitrile gradient; 5. analytical C4 column eluted with a water/methanol gradient.

A further data set deals with lymph node T cells. As to the kind of experiment: Proliferation of anti-CD3 activated lymph node T cells. The data set is classed as cell-based, BALB/c mouse. An excerpt:
(§1) Growth curves of lymph node T cells depleted of antigen-presenting cells (FIG. 17A) with and without 10^-6 M retinol at 2×10^5 and 5×10^4 cells/well. (FIG. 17B) Dose-responses elicited by different retinoids in cultures of lymph node T cells depleted of antigen-presenting cells. Also shown are the growth curves of CD4^+ (FIG. 17C) and CD8^+ T lymphocytes (FIG. 17D) in the presence of either retinol, 14HRR, human serum or in their absence.
(§2) T lymphocytes, purified as described, 5×10^4 /well, were activated with immobilized anti-CD3 antibody in ITLB medium. The indicated amounts of retinoids or human serum were added at initiation of cultures. […] 14HRR was added every 12 hours. DNA synthesis was measured by a 4 hour pulse with tritiated thymidine. SDs were ≤17%.
(§3) Mature T cells were obtained from pooled intestinal, axillary, inguinal and submandibular lymph nodes of 4 to 10-week-old BALB/c mice. To fractionate cells into CD4 and CD8 subsets and at the same time remove APC, a combination of adherence and complement lysis was used as follows:
(§4) The cell suspension in a volume of 2 ml was applied to a nylon wool column (40) (0.6 g of washed nylon fibers in the barrel of a 10 ml syringe) and incubated at 37° C. for 40 min. […] The success of the enrichment procedures was monitored cytofluorimetrically using FITC-conjugated anti-CD8 and PE-conjugated anti-CD4. […]
Cells were cultured in serum-free medium, referred to as ITLB, containing RPMI 1640 supplemented with 8×10^-7 M insulin (5 μg/ml), 7×10^-8 M transferrin (5 μg/ml), 2×10^-6 M linoleic acid, 2×10^-6 M delipidated BSA (0.12 mg/ml), 2 mM L-glutamine, 1 mM sodium pyruvate and antibiotics. […] The optimal concentration for stimulation of T cells was determined for each batch of anti-CD3 mAb and Con A. The optimal range of Con A was particularly narrow in serum-free medium (0.5-0.2 μg/ml) and varied with the cell density used. […] Cellular proliferation was determined by [^3 H] thymidine uptake (0.5 uCi/well; New England Nuclear, Boston, Mass.) after the incubation times indicated for each experiment with a 4 hour labeling pulse. […]

A further data set relates to CD8^+ T lymphocytes. As to the kind of experiment: Proliferation of anti-CD3 plus IL-2 activated CD8+ T lymphocytes. The class given is cell-based, BALB/c mouse.
Excerpt: as §1, §2, §3, §4

In data set [1] the test system is lymphoblastoid cells (LCL). The settings on record: cited from earlier work.
For another data set, the system named is T cells. Description: T cell activation and proliferation, retinol cofactor requirement. The class given is cell-based, murine. How it is done:
They were seeded into 96-well flat-bottom plates at varying cellular densities in a final volume of 100 μl. In control experiments, cells were cultured in medium containing 10% FCS or 3% human serum and 5×10^-5 M 2ME. […] Cultures were carried out in duplicate. Plates were incubated at 37° C. in a humidified 5% CO2 atmosphere. Cellular proliferation was determined by [^3 H] thymidine uptake (0.5 uCi/well; New England Nuclear, Boston, Mass.) after the incubation times indicated for each experiment with a 4 hour labeling pulse. Cells were harvested onto glass filter and [^3 H]TdR incorporation was determined by liquid scintillation counting. The data presented are the means of duplicate or six replicate cultures. The restriction to duplicate measurements was necessary to conserve scarce 14HRR. […] Each experiment was repeated at least twice.

The test system of the next data set is thymocytes. Description: Proliferation of anti-CD3 activated thymocytes in serum-free ITLB medium. The class given is cell-based, BALB/c mouse. How it is done: FIG. 14A: Purified BALB/c thymocytes were activated with immobilized anti-CD3e antibody and cultivated for four days in ITLB medium with or without retinol (3×10^-6 M), 14HRR (6×10^-7 M) (fresh 14HRR was added every 12 hours), human serum (3%) or FCS (10%) at the cellular densities shown. Proliferation was assayed by tritiated thymidine incorporation into cellular DNA.
FIG. 14B: BALB/c thymocytes (10^6 /ml) were added to microtiter plates coated with titrated amounts of anti-CD3e antibody with […] retinol or without, as indicated. Proliferation was measured in hexaduplicate wells on day 3 by ^3 H thymidine incorporation assay.
Purified thymocytes (5×10^5 cells/well) were stimulated by TCR crosslinking with immobilized anti-CD3e antibody (FIG. 15A) or 0.4 μg/ml Con A (FIG. 15B) in serum-free ITLB medium. The indicated amounts of retinoids were added either once at the beginning of the experiment (marked as "1×") or every 12 hours thereafter (marked as "6×"). DNA synthesis was measured after 72 hours by tritiated thymidine uptake as described.
Purified thymocytes (10^5 cells/well) were activated with anti-CD3 antibody in ITLB medium with or without retinol (3×10^-6 M), 14HRR (6×10^-7, added every 12 hours or human serum (3%)). DNA synthesis was measured daily by a 4 hour pulse of tritiated thymidine.
Thymocytes (5×10^4 /well) were activated by immobilized anti-CD3 mAb in medium ITLB. Retinol (2×10^-6 M) was added at initiation of culture, or delayed by 12 hours and 24 hours, respectively, or omitted altogether. ^3 H thymidine pulses of 4 hours were used to measure DNA synthesis of hexaduplicate wells.
Thymuses of 3 to 6-week-old BALB/c mice were teased in serum-free RPMI medium supplemented with 1% BSA, 10^-6 M linoleic acid and antibiotics. Depletion of accessory cells was achieved by two cycles of complement-dependent lysis with a mixture of anti-IA^d (5 μg/ml) and anti-IE^d (1:500 diluted ascites fluid). Briefly, cells were incubated on ice for 30 minutes with Ia antibodies, spun down, resuspended in 1:40 diluted rabbit complement, and incubated at 37° C. for 45 minutes. Incubations and two subsequent washes were carried out with RPMI medium containing 1% BSA. Cell viability was evaluated by trypan blue dye exclusion. To determine the extent of depletion of accessory cells, samples were stained with FITC-conjugated anti-Fc receptor antibody and analyzed by flow cytometry on a FACScan instrument (Becton Dickinson).
Cells were cultured in serum-free medium, referred to as ITLB, containing RPMI 1640 supplemented with 8×10^-7 M insulin (5 μg/ml), 7×10^-8 M transferrin (5 μg/ml), 2×10^-6 M linoleic acid, 2×10^-6 M delipidated BSA (0.12 mg/ml), 2 mM L-glutamine, 1 mM sodium pyruvate and antibiotics. They were seeded into 96-well flat-bottom plates at varying cellular densities in a final volume of 100 μl. In control experiments, cells were cultured in medium containing 10% FCS or 3% human serum and 5×10^-5 M 2ME. T cells and thymocytes were activated with immobilized, purified anti-mAb CD3e or by the addition of Con A in the presence or absence of different concentrations of retinoids. Unless indicated otherwise, retinoids were replenished every 12 hours to maintain a reasonably constant concentration of these labile compounds in culture. […] Cultures were carried out in duplicate. Plates were incubated at 37° C. in a humidified 5% CO2 atmosphere. Cellular proliferation was determined by [^3 H] thymidine uptake (0.5 uCi/well; New England Nuclear, Boston, Mass.) after the incubation times indicated for each experiment with a 4 hour labeling pulse.

For the next data set, the system named is B lymphocytes. The settings on record: previous analyses with B lymphocytes (ref. 33); cited from earlier work.
A further data set relates to CD4^+ T lymphocytes. As to the kind of experiment: Proliferation of anti-CD3 activated CD4+ T lymphocytes. The data set is classed as cell-based, BALB/c mouse.
Excerpt: as §1, §2, §3, §4

Data set [2] has as its system activated human thymocytes. The settings on record: cited from earlier work.

In the case of `CC1=C(/C=C/C(C)=C/C=C/C(C)=C/C(=O)O)C(C)(C)CC=C1` [3,4-didehydroretinol acid, 3,4-didehydroretinoic acid], the “detection as metabolite of retinol” value with 5/2 cells is reported as “not detectable”.

For the compound `CC1=C(/C=C/C(C)=C/C=C/C(C)=C/CO)C(C)(C)CC=C1` [3,4-didehydroretinol], the “detection as metabolite of retinol” value in the data set with 5/2 cells was “not detectable”.

On to `CC1=C(/C=C/C(C)=C/C=C/C(C)=C/C=O)C(C)(C)CCC1` [all-trans retinal], for which, in the data set on lymph node T cells, the “stimulation of lymph node T cells” value is on record as “dependent on the presence of retinal”. Further, in the data set on CD8^+ T lymphocytes, the “response of CD8+ subset to anti-CD3 plus IL-2” value is reported as “responded to the activating signal”. Moreover, in [1], the “support of growth of LCL in serum-free medium” value is “support the growth of LCL in serum-free medium”. In addition, the “ability to substitute for retinol in T cell activation (words)” value with T cells was “can substitute for retinal”. Further, in the data set on thymocytes (addition delayed by 24 hours), the “effect of delayed addition” value is on record as “complete failure of activation”. Further, the “effectiveness relative to retinol” value in the data set on thymocytes (anti-CD3, 14HRR at 12 hour intervals) is reported as “equally effective as all-trans retinol”. For the same compound, the optimally effective dose was found to be 2 µM in the data set with thymocytes (given once in a 3-day culture) and 0.2 µM with thymocytes (provided at 12 hour intervals). Further, the active concentration in the data set on B lymphocytes is 200 nM. The “response of CD4+ subset to anti-CD3” value with CD4^+ T lymphocytes is recorded as “responded to the activating signal”. Besides, in [2], the “support of growth of activated human thymocytes” value is “The same is true for activated human thymocytes”.

The values above are taken from patent publication US5814612A, “Retinol derivatives and uses thereof” (priority 1992, dated 1998).
